In the METLIN SMRT retention time set (Domingo-Almenara et al. 2019) one finds RP-LC retention time data, which are given here for 80 compounds.

The data set can be described thus: gradient 5% acetonitrile 3 min, to 50% in 2 min, to 85% in 15 min, held 3 min, 100 µL/min. Particulars: column: Zorbax Extend-C18 2.1 x 50 mm; eluents: water / acetonitrile, 0.1% formic acid. In short, it runs like this: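 Retention time was recorded from adduct peaks, which were picked computationally and each inspected manually. Pure standards ran in mixtures of ~100 molecules on HPLC coupled to a quadrupole time-of-flight mass spectrometer, in positive and negative ionization mode, through a Zorbax Extend-C18 column (2.1 × 50 mm, 1.8 μm) at 100 μL/min. Eluents were water and acetonitrile, each with 0.1% formic acid.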
In turn, `Cc1oc(-c2ccc(C(=O)NCC3COCCO3)cc2)nc1CN1CCc2ccccc21` (stereo not given) returned an RP-LC retention time of 876 s.

The compound `CCc1noc(-c2nc(-c3ccc(OC)cc3OC)no2)n1` had an RP-LC retention time of 976 s.

The compound `COc1cccc(C(=O)N2C[C@@H]3C[C@H](NC(=O)c4cccs4)[C@H]2C3)c1OC` gave an RP-LC retention time of 679 s.

On to `O=C(Nc1c(-c2ccccc2)nc2ccccn12)c1cc(Br)ccc1Cl`, for which the RP-LC retention time was 717 s.

On to `CN1C(=O)C2(CCN(C(=O)Cc3ccc(Cl)cc3)C2)c2ccccc21` (stereo not given), for which the RP-LC retention time was determined as 872 s.

As for `CCCNC(=O)c1n[nH]c2c1CCCCCC2`, the RP-LC retention time was found to be 776 s.

On to `NC(=O)CSc1nnc(N2CCN(C(=O)c3ccccc3Cl)CC2)s1`, for which the RP-LC retention time is 596 s.

For `Cc1ccc(N2CCC(NC(=O)c3ccccc3)C2=O)cc1C` (stereo not given), the RP-LC retention time turned out to be 862 s.

With `Cc1ccc(C(=O)N2CC(n3cc(COc4ccc(F)cc4)nn3)C2)c(=O)[nH]1`, the RP-LC retention time was 655 s.

For `CCc1nn2c(CNC(=O)c3ccc(F)c(Cl)c3)c(-c3ccccc3)nc2s1`, the RP-LC retention time was 1020 s.

Regarding `Cc1noc2nc(C)n(CC(=O)Nc3cccc4c3CCCC4)c(=O)c12`, the RP-LC retention time was 871 s.

`Cc1cc(C)n2nc(CN(C(=O)c3ccco3)c3ccccc3Cl)nc2n1`: the RP-LC retention time came to 743 s.

Turning to `COc1ccc(-c2nnc(NC(=O)c3ccc(S(=O)(=O)N(C)C)cc3)s2)c(OC)c1`, the RP-LC retention time worked out at 808 s.

For the compound `CN1C(=O)c2cccn2CC1CNS(=O)(=O)c1ccccc1` (stereo not given), the RP-LC retention time worked out at 668 s.

In turn, `O=C(NC(c1ccccc1)c1nnc(N2CCOCC2)o1)c1ccc(Cl)cc1` (stereo not given) came in with an RP-LC retention time of 781 s.

With `COCCN(Cc1ccc(C)cc1)Cc1cc(=O)n2ccc(C)cc2n1`, the RP-LC retention time amounted to 656 s.

`O=C(Nc1ccccc1Cl)N(CCc1ccccc1)Cc1ccccn1`: the RP-LC retention time was found to be 852 s.

Regarding `Cc1ccc(C)c(NC(=O)N2CCC(n3c(C)nc4cccnc43)CC2)c1`, the RP-LC retention time was determined as 638 s.

On to `CCN(CC)S(=O)(=O)c1cc(-c2nnc(-c3ccccc3OC)o2)ccc1C`, for which the RP-LC retention time was 1030 s.

As to `COc1cc(NC(=O)C2CC(=O)N(CCc3c[nH]c4ccc(F)cc34)C2)cc(OC)c1OC` (stereo not given), the RP-LC retention time stood at 744 s.

In turn, `Cc1cccc(Oc2coc3cc(OC(=O)c4ccncc4)ccc3c2=O)c1` showed an RP-LC retention time of 984 s.

As for `O=S(=O)(c1ccc2c(c1)OCCO2)N1CCCn2nc(-c3cccc(Cl)c3)cc2C1`, the RP-LC retention time turned out to be 1040 s.

On to `COc1ccc(-c2c(C(=O)NCc3cccs3)nc3ccccn23)cc1`, for which the RP-LC retention time came to 828 s.

As to `COc1ccccc1NC(=O)C12CCC(C)(C(=O)C1)C2(C)C` (stereo not given), the RP-LC retention time worked out at 848 s.

In turn, `CCn1c(=O)n(CC)c2cc(S(=O)(=O)c3ccccc3)c(NC(C)=O)cc21` gave an RP-LC retention time of 715 s.

`O=C(NCc1ccco1)c1cn(-c2cc(N3CCOCC3)ncn2)cn1`: the RP-LC retention time came out at 651 s.

`COc1ccc(NC(=O)Cn2nc3cc(C)nc(-c4ccccc4)n3c2=O)c(OC)c1` came in with an RP-LC retention time of 830 s.

In the case of `Cc1cccc(C(=O)N2CCC3(C2)C(=O)N(C)c2ccccc23)c1` (stereo not given), the RP-LC retention time came out at 794 s.

With `CC(=O)c1ccc2c(c1)N(CCCN(C)C)c1ccccc1S2`, the RP-LC retention time was found to be 741 s.

Compound `COc1ccc(S(=O)(=O)Cc2nc(-c3ccccc3Br)no2)cc1` showed an RP-LC retention time of 905 s.

Turning to `CC1(C(=O)NCc2ccccc2)CN(S(C)(=O)=O)CC(=O)N1c1ccc(F)cc1` (stereo not given), the RP-LC retention time turned out to be 750 s.

The compound `COCCNC(=O)Cn1nc(C)c2c(C)n(-c3ccccc3)nc2c1=O` had an RP-LC retention time of 649 s.

`COc1cc(CNC(=O)c2ccc3c(c2)N(C)C(=O)C2CCCCN32)cc(OC)c1OC` (stereo not given) came in with an RP-LC retention time of 790 s.

`Cc1ccc(N(C)S(=O)(=O)c2cc(-c3[nH]ncc3C(=O)N3CCCCC3)oc2C)cc1` yielded an RP-LC retention time of 835 s.

Regarding `O=C(CN1CCOCC1)Nc1ccc(Br)cc1`, the RP-LC retention time stood at 556 s.

On to `COc1cccc(CNC(=O)Nc2cccc(-c3ccc(N4CCOCC4)nn3)c2)c1`, for which the RP-LC retention time came to 670 s.

For the compound `COc1ccc(Nc2c(-c3ccc(N4CCOCC4)cc3)nc3ncccn23)cc1`, the RP-LC retention time turned out to be 654 s.

The compound `CC[C@H](Nc1ncnc2nc[nH]c12)c1nc2cccc(F)c2c(=O)n1-c1ccccc1` had an RP-LC retention time of 714 s.

`Cc1nc2ccn(Cc3ccco3)c(=O)c2cc1C(=O)NCCC1=CCCCC1` yielded an RP-LC retention time of 828 s.

As to `O=C(Nc1ccc2c(c1)OCCO2)c1c(O)c2cccnc2n(-c2ccc(F)cc2)c1=O`, the RP-LC retention time turned out to be 1120 s.

As for `CCc1cc(N2CCN(C(=O)COc3ccccc3OC)CC2)nc2nncn12`, the RP-LC retention time stood at 601 s.

In the case of `Cn1c(=O)c(=O)n(CC(=O)NCc2cccc(Br)c2)c2cccnc21`, the RP-LC retention time came out at 717 s.

In turn, `Cc1ccc(NC(=O)c2nc(C(C)C)oc2C)cc1F` displayed an RP-LC retention time of 1140 s.

For `O=C(O)c1ccccc1C(=O)Nc1ccccc1[N+](=O)[O-]`, the RP-LC retention time worked out at 782 s.

Take `C[C@H]1CCCC(=O)CCC/C=C/c2c(O)cc(O)cc2C(=O)O1`: the RP-LC retention time was 888 s.

Take `CCOc1cccc2cc(C(=O)Nc3ccccc3S(C)(=O)=O)oc12`: the RP-LC retention time amounted to 931 s.

In turn, `COc1ccc(C)cc1NC(=O)N1CC(c2nc(C)no2)C2(CCOCC2)C1` (stereo not given) yielded an RP-LC retention time of 753 s.

Compound `CCOc1ccccc1-c1noc(CN2C(=O)COc3ccc(S(=O)(=O)CC)cc32)n1` showed an RP-LC retention time of 902 s.

Compound `Cn1ncc2c(N3CCCCC3)nc(C(=O)N3CCN(c4ccccc4Cl)CC3)nc21` yielded an RP-LC retention time of 1030 s.

`Cc1ccccc1-c1noc(C2CCCN2S(=O)(=O)c2ccc(Br)s2)n1` (stereo not given) yielded an RP-LC retention time of 1230 s.

`CC1CCCCN1CCCNC(=O)C1CCCN(c2ncnc3c2nc2n3CCCCC2)C1` (stereo not given) yielded an RP-LC retention time of 589 s.

The compound `CCOc1ccc(NC(=O)N2CCC[C@@H]2C(=O)NCc2csc(-c3ccccc3)n2)cc1` had an RP-LC retention time of 808 s.

The compound `O=C(Cn1nc(N2CCCCCC2)c2ccccc2c1=O)Nc1ccc(F)cc1` yielded an RP-LC retention time of 1090 s.

The compound `CS(=O)(=O)N1CCCc2cc(C(=O)NCc3ccccn3)ccc21` registered an RP-LC retention time of 607 s.

Turning to `CCc1nc2ccccc2c(=O)n1Cc1noc(C2CC(=O)N(c3ccccc3)C2)n1` (stereo not given), the RP-LC retention time amounted to 823 s.

`Cc1ccccc1Nc1c(-c2c(F)cccc2Cl)nc2ccccn12` came in with an RP-LC retention time of 739 s.

`Cc1cnc(C2CC2)n1CCNS(=O)(=O)c1ccccc1F` registered an RP-LC retention time of 587 s.

`COc1ccccc1N1CCN(c2cc(SCC(=O)Nc3ccc(F)cc3)ncn2)CC1` yielded an RP-LC retention time of 941 s.

In turn, `CC(C)CN(Cc1cccnc1)C1CN(S(=O)(=O)c2cccnc2)C1` returned an RP-LC retention time of 645 s.

For the compound `CN1CCC(NC(=O)c2n[nH]c3c2CN(C(=O)c2cc(F)cc(F)c2)CC3)CC1`, the RP-LC retention time was 597 s.

Take `Cc1ccc(C)c(N2CCN(Cc3nc4nc(C)cc(N5CCN(C)CC5)n4n3)CC2)c1`: the RP-LC retention time is 593 s.

On to `O=C(COc1cccc(Cl)c1)Nc1nc(-c2ccccc2)cs1`, for which the RP-LC retention time was 1110 s.

`Cc1noc2ncnc(N3CCCC(C(=O)N4CCN(c5ccc(Cl)cc5)CC4)C3)c12` (stereo not given) gave an RP-LC retention time of 931 s.

`CSc1nnc(-c2nn(C)c3c2CN(C(=O)Cc2ccc(C)cc2)CC3)n1C` had an RP-LC retention time of 736 s.

Regarding `CCCNC(=O)c1nnn(Cc2ccc(Cl)cc2)c1-n1cccc1`, the RP-LC retention time was found to be 980 s.

As to `CC(Oc1ccccc1)C(=O)N(C)CC1(C)CCOCC1` (stereo not given), the RP-LC retention time worked out at 685 s.

In the case of `O=C(Nc1cc(F)cc(F)c1)Nc1cccc(-c2nccnc2N2CCOCC2)c1`, the RP-LC retention time turned out to be 940 s.

Consider `CS(=O)(=O)N(C1CCOCC1)C1CN(C(=O)NCCc2ccccc2)C1`, for which the RP-LC retention time was 684 s.

`COc1ccc(OCc2noc(CNC(=O)C3CC(=O)N(c4ccccc4)C3)n2)cc1` (stereo not given): the RP-LC retention time was found to be 736 s.

In turn, `CS(=O)(=O)N1CCC(C(=O)Nc2nnc(-c3ccc(F)cc3)o2)CC1` came in with an RP-LC retention time of 636 s.

Turning to `CCc1nc(-c2csc(S(=O)(=O)N3CCC(C(=O)Nc4cc(C)cc(C)c4)CC3)c2)no1`, the RP-LC retention time was 1090 s.

On to `COC(=O)c1c(C)[nH]c(C(=O)N2CCCC(C(=O)NCCN3CCCCCC3)C2)c1C` (stereo not given), for which the RP-LC retention time came out at 610 s.

Turning to `COc1ccc(-c2nnc(-c3ccccc3)o2)cc1S(=O)(=O)NCC(=O)O`, the RP-LC retention time is 703 s.

Compound `COCCCNC(=O)N1CCCCCC1c1ccc(C)cc1` (stereo not given) yielded an RP-LC retention time of 939 s.

Consider `Cc1[nH]c(=O)[nH]c(=O)c1S(=O)(=O)NC1CC2CCC1C2` (stereo not given), for which the RP-LC retention time was 658 s.

Regarding `CCCCNC(=O)C1CCN(C(=O)c2cc3ccsc3n2Cc2ccc(Cl)cc2)CC1`, the RP-LC retention time was 1010 s.

In turn, `Cc1ccc(-c2ccc(N3CCCC(C(=O)N4CCN(C(C)C)CC4)C3)nn2)cc1C` (stereo not given) showed an RP-LC retention time of 623 s.

The compound `CCN(C(=O)Cn1ccn2nc(-c3ccccc3)c(CO)c2c1=O)c1ccccc1` gave an RP-LC retention time of 838 s.

With `CCc1cc(N2CCN(C(=O)c3ccc4c(c3)OCO4)CC2)nc2nnc(C)n12`, the RP-LC retention time was 607 s.

Consider `Cc1ccccc1CNC(=O)C1c2ccccc2CC(=O)N1C(C)C` (stereo not given), for which the RP-LC retention time was found to be 827 s.
